Data set [1] deals with db/db mice. The data set can be described thus: Oral glucose tolerance test. In kind it is in vivo. The following applies: fasted db/db mice, 2 g/kg glucose orally 30 minutes after substance. The procedure:
Fasted db/db mice 7 to 9 weeks old (Janvier, France) are weighed and blood is taken from the tip of the tail. This blood is used for the first measurement of glucose on the basis of which the animals are randomised and divided into groups. The test substance to be tested may be given either orally or i.p. as a suspension in 0.5% Natrosol. 30 minutes after the administration of the substance the animals are given orally 2 g/kg glucose in a volume of 0.1 ml/100 g body weight dissolved in NaCl solution. Subsequently, the glucose values are determined from the tail blood using a glucometer (Ultra OneTouch, Lifescan) at specific time intervals [30, 60, 120 and 180 minutes after oral administration of the glucose].

In data set [2] the test system is mice. The data set can be described thus: Tolerability after oral administration to mice. Format: in vivo. The following applies: oral administration of 10 mg/kg to mice.

On to `CC(=O)c1ccc2c(c1)/C(=C(/Nc1ccc(CN(C)C)cc1)c1ccc3c(c1)OCCO3)C(=O)N2` [Example 1.051, 5-acetyl-3-{[4-(dimethylamino-methyl)-phenylamino]-(2,3-dihydro-benzo[1,4]-dioxin-6-yl)-methylidene}-2-indolinone], for which the “activity in the oral glucose tolerance test” value in data set [1] is reported as “significant activity”. Also, the “changes in the animals' behaviour” value in data set [2] is “no changes were observed”.
